Measurements: PubChem BioAssay AID330 (DTP/NCI, 2004)
Inconclusive results and toxic doses are left out. How the source made its calls: active means survival T/C of 150% or more; inactive means T/C below 125% in these data. Bridge positions count the residues as written; N and C are the ends. Peptide text beside a SMILES is read from it. I, II: the chains in the order shown. * marks the point of attachment. Quinoxaline2carbonyl = O=C(c1cnc2ccccc2n1)*

Tested on: P388 leukemia ip, CD2F1 mice, survival T/C
Test: NCI In Vivo Anticancer Drug Screen. Data for tumor model P388 Leukemia (intraperitoneal) in CD2F1 (CDF1) mice
Conditions: endpoint: median survival time, higher = longer survival
Method in brief: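 Mice carrying the transplanted tumor received test compound or vehicle. Survival was recorded in each group, and the value is the treated-group measurement divided by that of the vehicle-treated control group.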

[1] = dose: 100.0 mg/kg/injection, schedule: Q01DX001 (ip), vehicle: saline with Tween-80
[2] = dose: 200.0 mg/kg/injection, schedule: Q01DX001 (ip), vehicle: saline with Tween-80
[3] = dose: 60.0 mg/kg/injection, schedule: Q01DX005 (ip), vehicle: Klucel (hydroxypropylcellulose) (HPC)
[4] = dose: 50.0 mg/kg/injection, schedule: Q01DX005 (ip), vehicle: Klucel (hydroxypropylcellulose) (HPC)
[5] = dose: 100.0 mg/kg/injection, schedule: Q01DX005 (ip), vehicle: Klucel (hydroxypropylcellulose) (HPC)
[6] = dose: 200.0 mg/kg/injection, schedule: Q01DX005 (ip), vehicle: Klucel (hydroxypropylcellulose) (HPC)

Measured: T/C

CC1(C)C=C2OC(=O)CCC2(C)CC1 (configuration not stated)
inactive: dose: 50.0 mg/kg/injection, schedule: Q01DX001 (ip), vehicle: saline with Tween-80 95 % of control | [1] 118 % of control | [2] 90 % of control

Nc1cc(S(=O)(=O)O)cc2cc(S(=O)(=O)O)cc(O)c12
inactive: [3] 96 % of control | dose: 120.0 mg/kg/injection, schedule: Q01DX005 (ip), vehicle: Klucel (hydroxypropylcellulose) (HPC) 98 % of control | dose: 240.0 mg/kg/injection, schedule: Q01DX005 (ip), vehicle: Klucel (hydroxypropylcellulose) (HPC) 95 % of control

CSc1nccc(=O)n1-c1ccccc1C
inactive: dose: 100.0 mg/kg/injection, schedule: Q04DX002 (ip), vehicle: Klucel (hydroxypropylcellulose) (HPC) 100 % of control | dose: 200.0 mg/kg/injection, schedule: Q04DX002 (ip), vehicle: Klucel (hydroxypropylcellulose) (HPC) 102 % of control

Nc1ncnc2nc(-c3ccc(OCc4ccccc4)cc3)[nH]c12
inactive: dose: 100.0 mg/kg/injection, schedule: Q01DX001 (ip), vehicle: saline 101 % of control | dose: 200.0 mg/kg/injection, schedule: Q01DX001 (ip), vehicle: saline 94 % of control | dose: 400.0 mg/kg/injection, schedule: Q01DX001 (ip), vehicle: saline 98 % of control

O=C(O)/C(=C\c1c(Cl)n(-c2ccccc2)c2ccccc12)NC(=O)c1ccccc1
inactive: [1] 92 % of control | [2] 88 % of control

C=C(C)[C@H]1CCC23C[C@@H]4C(C[C@H]2C1(C)CCC(=O)O)C4(C)C3 (some centres not stated)
inactive: dose: 5.5 mg/kg/injection, schedule: Q01DX005 (ip), vehicle: Klucel (hydroxypropylcellulose) (HPC) 100 % of control | dose: 11.0 mg/kg/injection, schedule: Q01DX005 (ip), vehicle: Klucel (hydroxypropylcellulose) (HPC) 106 % of control | dose: 22.0 mg/kg/injection, schedule: Q01DX005 (ip), vehicle: Klucel (hydroxypropylcellulose) (HPC) 100 % of control | dose: 25.0 mg/kg/injection, schedule: Q01DX005 (ip), vehicle: Klucel (hydroxypropylcellulose) (HPC) 91 % of control | dose: 44.0 mg/kg/injection, schedule: Q01DX005 (ip), vehicle: Klucel (hydroxypropylcellulose) (HPC) 100 % of control | [4] 100 % of control | [5] 91 % of control | [6] 91 % of control

O=Cc1ccc2c(c1)C(O)NC(=O)O2 (configuration not stated)
inactive: dose: 50.0 mg/kg/injection, schedule: Q01DX005 (ip), vehicle: saline with Tween-80 100 % of control | dose: 100.0 mg/kg/injection, schedule: Q01DX005 (ip), vehicle: saline with Tween-80 101 % of control

Nc1ccc(C(=O)Nc2ccc(NC(=O)c3ccco3)c(O)c2)cc1
inactive: dose: 60.0 mg/kg/injection, schedule: Q01DX005 (ip), vehicle: saline with Tween-80 94 % of control | dose: 120.0 mg/kg/injection, schedule: Q01DX005 (ip), vehicle: saline with Tween-80 91 % of control | dose: 240.0 mg/kg/injection, schedule: Q01DX005 (ip), vehicle: saline with Tween-80 89 % of control

O=P(O)(O)O.[Cr+3].[NH-]CC[NH-].[NH-]CC[NH-].[NH-]CC[NH-]
inactive: dose: 25.0 mg/kg/injection, schedule: Q01DX009 (ip), vehicle: saline 101 % of control | dose: 50.0 mg/kg/injection, schedule: Q01DX009 (ip), vehicle: saline 97 % of control | dose: 100.0 mg/kg/injection, schedule: Q01DX009 (ip), vehicle: saline 99 % of control

CCOC(=O)Nc1nc2ccc(SC#N)cc2s1
inactive: dose: 6.25 mg/kg/injection, schedule: Q01DX009 (ip), vehicle: Klucel (hydroxypropylcellulose) (HPC) 107 % of control | dose: 12.5 mg/kg/injection, schedule: Q01DX009 (ip), vehicle: Klucel (hydroxypropylcellulose) (HPC) 107 % of control | dose: 25.0 mg/kg/injection, schedule: Q01DX009 (ip), vehicle: Klucel (hydroxypropylcellulose) (HPC) 96 % of control

CC1NC(=O)C(NC(=O)c2cnc3ccccc3n2)COC(=O)C(C(C)C)NC(=O)C2CSSCC(NC1=O)C(=O)NC(C(C)C)C(=O)OCC(NC(=O)c1cnc3ccccc3n1)C(=O)NC(C)C(=O)N2 (configuration not stated) (I: Quinoxaline2carbonyl-SACV / II: Quinoxaline2carbonyl-SACV; ester I:1-II:C, I:C-II:1; disulfide I:3-II:3; configuration not given here)
inactive: dose: 1.25 mg/kg/injection, schedule: Q01DX005 (ip), vehicle: Klucel (hydroxypropylcellulose) (HPC) 96 % of control | dose: 2.5 mg/kg/injection, schedule: Q01DX005 (ip), vehicle: Klucel (hydroxypropylcellulose) (HPC) 98 % of control | dose: 5.0 mg/kg/injection, schedule: Q01DX005 (ip), vehicle: Klucel (hydroxypropylcellulose) (HPC) 95 % of control | dose: 10.0 mg/kg/injection, schedule: Q01DX005 (ip), vehicle: Klucel (hydroxypropylcellulose) (HPC) 90 % of control | dose: 20.0 mg/kg/injection, schedule: Q01DX005 (ip), vehicle: Klucel (hydroxypropylcellulose) (HPC) 95 % of control | dose: 40.0 mg/kg/injection, schedule: Q01DX005 (ip), vehicle: Klucel (hydroxypropylcellulose) (HPC) 93 % of control | [3] 95 % of control

O=C1CCCC2=C1CC1=C(CCCC1=O)N2
inactive: [4] 94 % of control | [5] 96 % of control | [6] 90 % of control
